Where no end group is shown, it is not given here. [ ]: non-standard residue; d: D form. Hyp = O=C(O)[C@@H]1C[C@@H](O)CN1
Legend:
[1] = system: human dermal fibroblasts; experiment: Collagen assay (Sircol): collagen synthesis by dermal fibroblasts; format: cell-based; settings: 0.5 mg/ml collagen peptide, stimulation for three weeks, photometric at 492 nm, FIG. 1A
Procedure: (§1) The human cells used were obtained from tebu-bio GmbH, Offenbach, Germany. The chondrocytes (Cat. No. 402-05a) or dermal fibroblasts (Cat. No. 106-05a) were first sown in 12-well culture plates and cultured at 37° C., 5% CO2 in Ham's F12 medium, to which 10% fetal calf serum, 20 U/ml penicillin-streptomycin and 50 μg/ml ascorbic acid were added. On every other day, the culture medium was replaced by new culture medium until the cells had reached 80% confluence. To investigate the influence of the collagen peptides according to the invention of SEQ ID NO: 7, 8, 9 and 10 on the biosynthesis of matrix proteins, the cell culture medium was then replaced by a special stimulation medium to which 0.5 mg/ml of the specific collagen peptides according to the invention were added.
To investigate the collagen metabolism, the amount of newly synthesized collagen was determined after stimulating the cells with 0.5 mg/ml BCP for three weeks. The synthesized collagen was isolated using the Sircol assay (Article No. 054S5000, 2019, tebu-bio, Offenbach, Germany, or Biocolor Ltd., UK) according to the manufacturer's instructions. In brief, the culture medium was initially discarded and the adherent cell layers were digested with 0.1 mg pepsin solution in 0.5 M acetic acid at 4° C. overnight. The cell suspensions were neutralized by adding 100 μl of an acid-neutralizing reagent. The synthesized collagen was then separated off by adding 200 μl of an isolation and concentration solution with vigorous shaking at 4° C. overnight. After centrifugation (12,000 rpm, 10 min) and discarding the supernatant, the isolated collagen was resuspended in 1 ml of Sircol dye solution. After 30 minutes of shaking and another centrifugation, the collagen pellet was covered with 750 μl of cold acidic solid washing reagent. After another centrifugation, the supernatant was again discarded and the enriched collagen was taken up in 250 μl of alkaline solution. In each case 200 μl of the sample solutions were used for photometric quantification of the synthesized collagen. The absorbance was measured at a wavelength of 492 nm. The amount of collagen synthesized in each case was determined on the basis of standardized collagen solutions.

[2] = system: human dermal fibroblasts; experiment: Proteoglycan assay (Blyscan glycosaminoglycan assay): proteoglycan synthesis by dermal fibroblasts; format: cell-based; settings: 0.5 mg/ml collagen peptide, stimulation for two weeks, photometric at 656 nm, FIG. 1B
Procedure: as §1
The Blyscan glycosaminoglycan assay (Article No. 054B3000, 2019, tebu-bio, Offenbach, Germany, or Biocolor Ltd., UK) was used to determine proteoglycans. The biosynthesis of proteoglycans was determined after stimulating dermal fibroblasts for two weeks. According to the manufacturer's instructions, after discarding the culture medium, the cell layers were covered with 1 ml of papain extraction solution and incubated for three hours at 65° C. with vigorous shaking. The cell suspensions were then centrifuged (10,000 g, 10 min) and the supernatants were collected. After adding 1 ml of Blyscan dye solution and shaking (30 min), the supernatants were centrifuged again (12,000 rpm, 10 min) and then discarded. The isolated proteoglycan pellets were resuspended in 500 μl of dissociation solution. A photometric determination of the synthesized proteoglycan in 200 μl sample solution was carried out at a wavelength of 656 nm in comparison to untreated control experiments.

| Substance | increased collagen synthesis by dermal fibroblasts compared to untreated controls [1] [%] | increase of synthesis of proteoglycans by dermal fibroblasts in comparison to untreated controls [2] [%] |
| --- | --- | --- |
| GL[P]GKYGVHGLTGPLGP[P]GPMGI[P]GWKGFVGPT (GL[Hyp]GKYGVHGLTGPLGP[Hyp]GPMGI[Hyp]GWKGFVGPT) [SEQ ID NO: 8] | 22 | 22 |
| GP[P]GPLGMKGL[P]GVWGPFGL[P]GTPGPHGITGYKGV [SEQ ID NO: 9] | 21 | 21 |
| GP[P]GPVGTKGL[P]GFYGPLGI[P]GHPGPWGMLGTKGV [SEQ ID NO: 10] | 21 | 22 |
| GL[P]GKMGVFGLTGPIGP[P]GPWGV[P]GHKGYLGPT (GL[Hyp]GKMGVFGLTGPIGP[Hyp]GPWGV[Hyp]GHKGYLGPT) [SEQ ID NO: 7] | 27 | 26 |

Source: patent US12528857B2, “Nutritionally-optimized collagen peptide” (Gelita AG, priority 2019, dated 2026)
